We go through 5 molecules from patent publication US20260166128A1, “HUMAN AMYLIN ANALOG, AND DERIVATIVE THEREOF AND USE THEREOF” (priority 2022, published 2026).

Numbered stars: 1 amine (or outer) side, 2 acyl side, 3 side chain; on linkers, the order of the positions; unused ones are H or OH. Bridge positions count the residues as written; N and C are the ends. Square brackets hold non-standard residues; d marks the D form. Side chains are listed from the residue outwards. Peptide text beside a SMILES is read from it. * marks the point of attachment. C20 diacid = O=C(O)CCCCCCCCCCCCCCCCCCC(=O)*; C18 diacid = O=C(O)CCCCCCCCCCCCCCCCC(=O)*; γGlu = O=C(O)[C@H](CCC(=O)[*:2])N[*:1]; Hyp = O=C(O)[C@@H]1C[C@@H](O)CN1; AEEA = NCCOCCOCC(=O)O

In data set [1] the target is T1, human amylin receptor (Homo sapiens, UniProt O60896+P30988).
T1 construct: host or cells: CHO-K1/Ga15/AMY3 cells, further stably transfected with a CRE-luciferase plasmid
T1 sequence (P30988 25-474): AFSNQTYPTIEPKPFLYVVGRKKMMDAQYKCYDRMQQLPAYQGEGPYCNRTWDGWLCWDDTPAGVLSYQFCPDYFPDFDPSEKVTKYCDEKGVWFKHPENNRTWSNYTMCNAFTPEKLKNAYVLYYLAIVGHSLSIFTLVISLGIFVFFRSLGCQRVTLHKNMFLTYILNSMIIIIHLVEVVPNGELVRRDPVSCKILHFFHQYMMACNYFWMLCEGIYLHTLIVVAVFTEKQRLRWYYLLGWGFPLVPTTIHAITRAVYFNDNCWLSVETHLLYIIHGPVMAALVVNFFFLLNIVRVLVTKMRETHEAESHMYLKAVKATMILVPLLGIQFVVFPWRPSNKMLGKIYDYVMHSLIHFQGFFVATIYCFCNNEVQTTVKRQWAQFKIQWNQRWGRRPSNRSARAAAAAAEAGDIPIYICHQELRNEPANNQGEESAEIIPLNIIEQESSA
T1 sequence (O60896 24-148 partner): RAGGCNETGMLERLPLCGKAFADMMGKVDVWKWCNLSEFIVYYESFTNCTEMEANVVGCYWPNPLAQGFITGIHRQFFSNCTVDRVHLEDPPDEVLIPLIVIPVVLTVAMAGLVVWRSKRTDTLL
Briefly: Luciferase assay of amylin derivatives in amylin receptor/CRE-luc CHO cell line. The data set is classed as cell-based. The conditions noted are these: CHO-K1/Ga15/AMY3 CRE-luc cells, 24 hours incubation, F12 medium containing 10% FBS; read-out: EC50.
Method: The experiment was intended to detect the activity or efficacy of the amylin derivatives on a human amylin receptor in vitro by luciferase assay.
50 μL of growth medium (F12 medium containing 10% FBS) was added into each well of a white 96-well plate, and the stably transfected amylin/CRE-lue CHO cells were inoculated into the white 96-well plate at a density of about 20,000 cells/well for activity determination.

A short description of data set [2]: Freeze-thaw stability of derivatives (freeze-thaw yield by liquid chromatography). The data set is classed as physicochemical. To be noted: for Dissolution property: appearance after dissolution at 0.2 mg/ml in 20 mM phosphate buffer solution (PB) (pH 7.0); for Freeze storage property: appearance after overnight storage at −20° C. and thawing to room temperature, 0.2 mg/ml in 20 mM PB (pH 7.0); for Freeze storage yield: concentration of polypeptide after freezing and thawing / concentration before, by liquid chromatography, −20° C. overnight. The method, boiled down: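 Freeze-thaw yield is the ratio of peptide concentration after versus before one overnight −20° C freeze and room-temperature thaw, both quantified by RP-HPLC of supernatant after centrifugation. Samples were 0.2 mg/ml freeze-dried derivative in 20 mM PB, pH 7.0.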

Take `CC[C@H](C)[C@H](NC(=O)[C@@H]1CCCN1C(=O)CNC(=O)[C@H](CC(C)C)NC(=O)[C@H](CC(N)=O)NC(=O)[C@H](CC(N)=O)NC(=O)[C@H](CO)NC(=O)[C@H](CO)NC(=O)[C@H](Cc1c[nH]cn1)NC(=O)[C@H](CCCNC(=N)N)NC(=O)[C@H](CC(C)C)NC(=O)[C@H](Cc1ccccc1)NC(=O)[C@H](CC(=O)O)NC(=O)[C@H](C)NC(=O)[C@H](CC(C)C)NC(=O)[C@H](CCCNC(=N)N)NC(=O)[C@H](CCC(N)=O)NC(=O)[C@@H](NC(=O)[C@H](C)NC(=O)[C@@H]1CSSC[C@H](NC(=O)[C@H](CCCCN)NC(=O)COCCOCCNC(=O)CC[C@H](NC(=O)CCCCCCCCCCCCCCCCC(=O)O)C(=O)O)C(=O)N[C@@H](CC(N)=O)C(=O)N[C@@H]([C@@H](C)O)C(=O)N[C@@H](C)C(=O)N[C@@H]([C@@H](C)O)C(=O)N1)[C@@H](C)O)C(=O)N[C@@H](CC(C)C)C(=O)N1CCC[C@H]1C(=O)N1CCC[C@H]1C(=O)N[C@H](C(=O)N[C@@H](CC(N)=O)C(=O)N[C@H](C(=O)NCC(=O)N[C@@H](CO)C(=O)N[C@@H](CC(N)=O)C(=O)N[C@H](C(=O)N1C[C@H](O)C[C@H]1C(N)=O)[C@@H](C)O)C(C)C)[C@@H](C)O` [PD125] ({C18 diacid-γGlu-AEEA}-KCNTATCATQRLADFLRHSSNNLGPILPPTNVGSNT[Hyp]-NH2; disulfide 2-7 (inferred)): in data set [1], the EC50 (commonly the concentration that produces a half-maximal response) was 0.01 nM. Further, in data set [2], the Dissolution property entry is listed as “Clear”, the Freeze storage property result is given as “Clear” and the Freeze storage yield was determined as 95.59%.

On to `CC[C@H](C)[C@H](NC(=O)[C@@H]1CCCN1C(=O)CNC(=O)[C@H](CC(C)C)NC(=O)[C@H](CC(N)=O)NC(=O)[C@H](CCCCNC(=O)COCCOCCNC(=O)COCCOCCNC(=O)CC[C@H](NC(=O)CCCCCCCCCCCCCCCCC(=O)O)C(=O)O)NC(=O)[C@H](CO)NC(=O)[C@H](CO)NC(=O)[C@H](Cc1c[nH]cn1)NC(=O)[C@H](CCCNC(=N)N)NC(=O)[C@H](CC(C)C)NC(=O)[C@H](Cc1ccccc1)NC(=O)[C@H](CC(=O)O)NC(=O)[C@H](C)NC(=O)[C@H](CC(C)C)NC(=O)[C@H](CCCNC(=N)N)NC(=O)[C@H](CCC(N)=O)NC(=O)[C@@H](NC(=O)[C@H](C)NC(=O)[C@@H]1CSSC[C@H](NC(=O)[C@@H](N)CCCNC(=N)N)C(=O)N[C@@H](CC(N)=O)C(=O)N[C@@H]([C@@H](C)O)C(=O)N[C@@H](C)C(=O)N[C@@H]([C@@H](C)O)C(=O)N1)[C@@H](C)O)C(=O)N[C@@H](CC(C)C)C(=O)N1CCC[C@H]1C(=O)N1CCC[C@H]1C(=O)N[C@H](C(=O)N[C@@H](CC(N)=O)C(=O)N[C@H](C(=O)NCC(=O)N[C@@H](CO)C(=O)N[C@@H](CC(N)=O)C(=O)N[C@H](C(=O)N1C[C@H](O)C[C@H]1C(N)=O)[C@@H](C)O)C(C)C)[C@@H](C)O` [PD093] (H-RCNTATCATQRLADFLRHSSK([AEEA-AEEA-γGlu-C18 diacid])NLGPILPPTNVGSNT[Hyp]-NH2; disulfide 2-7 (inferred); N-terminus assumed), for which the EC50 in data set [1] worked out at 0.019 nM. Moreover, in data set [2], the Dissolution property result is “Clear”, the Freeze storage property entry is listed as “Clear” and the Freeze storage yield was 99.86%.

On to `CC[C@H](C)[C@H](NC(=O)[C@@H]1CCCN1C(=O)CNC(=O)[C@H](CC(C)C)NC(=O)[C@H](CC(N)=O)NC(=O)[C@H](CC(N)=O)NC(=O)[C@H](CO)NC(=O)[C@H](CCCCNC(=O)COCCOCCNC(=O)CC[C@H](NC(=O)CCCCCCCCCCCCCCCCC(=O)O)C(=O)O)NC(=O)[C@H](Cc1c[nH]cn1)NC(=O)[C@H](CCCNC(=N)N)NC(=O)[C@H](CC(C)C)NC(=O)[C@H](Cc1ccccc1)NC(=O)[C@H](CC(=O)O)NC(=O)[C@H](C)NC(=O)[C@H](CC(C)C)NC(=O)[C@H](CCCNC(=N)N)NC(=O)[C@H](CCC(N)=O)NC(=O)[C@@H](NC(=O)[C@H](C)NC(=O)[C@@H]1CSSC[C@H](NC(=O)[C@@H](N)CCCNC(=N)N)C(=O)N[C@@H](CC(N)=O)C(=O)N[C@@H]([C@@H](C)O)C(=O)N[C@@H](C)C(=O)N[C@@H]([C@@H](C)O)C(=O)N1)[C@@H](C)O)C(=O)N[C@@H](CC(C)C)C(=O)N1CCC[C@H]1C(=O)N1CCC[C@H]1C(=O)N[C@H](C(=O)N[C@@H](CC(N)=O)C(=O)N[C@H](C(=O)NCC(=O)N[C@@H](CO)C(=O)N[C@@H](CC(N)=O)C(=O)N[C@H](C(=O)N1C[C@H](O)C[C@H]1C(N)=O)[C@@H](C)O)C(C)C)[C@@H](C)O` [PD119] (H-RCNTATCATQRLADFLRHK([AEEA-γGlu-C18 diacid])SNNLGPILPPTNVGSNT[Hyp]-NH2; disulfide 2-7 (inferred); N-terminus assumed), for which the EC50 in data set [1] stood at 0.024 nM. For the same molecule, in data set [2], the Dissolution property result is recorded as “Clear”, the Freeze storage property result was “Clear” and the Freeze storage yield is 103.04%.

Turning to `CC[C@H](C)[C@H](NC(=O)[C@H](CCCCNC(=O)COCCOCCNC(=O)COCCOCCNC(=O)CC[C@H](NC(=O)CCCCCCCCCCCCCCCCCCC(=O)O)C(=O)O)NC(=O)CNC(=O)[C@H](CC(C)C)NC(=O)[C@H](CC(N)=O)NC(=O)[C@H](CC(N)=O)NC(=O)[C@H](CO)NC(=O)[C@H](CO)NC(=O)[C@H](Cc1c[nH]cn1)NC(=O)[C@H](CCCNC(=N)N)NC(=O)[C@H](CC(C)C)NC(=O)[C@H](Cc1ccccc1)NC(=O)[C@H](CC(=O)O)NC(=O)[C@H](C)NC(=O)[C@H](CC(C)C)NC(=O)[C@H](CCCNC(=N)N)NC(=O)[C@H](CCC(N)=O)NC(=O)[C@@H](NC(=O)[C@H](C)NC(=O)[C@@H]1CSSC[C@H](NC(=O)[C@@H](N)CCCNC(=N)N)C(=O)N[C@@H](CC(N)=O)C(=O)N[C@@H]([C@@H](C)O)C(=O)N[C@@H](C)C(=O)N[C@@H]([C@@H](C)O)C(=O)N1)[C@@H](C)O)C(=O)N[C@@H](CC(C)C)C(=O)N1CCC[C@H]1C(=O)N1CCC[C@H]1C(=O)N[C@H](C(=O)N[C@@H](CC(N)=O)C(=O)N[C@H](C(=O)NCC(=O)N[C@@H](CO)C(=O)N[C@@H](CC(N)=O)C(=O)N[C@H](C(=O)N1C[C@H](O)C[C@H]1C(N)=O)[C@@H](C)O)C(C)C)[C@@H](C)O` [PD103] (H-RCNTATCATQRLADFLRHSSNNLGK([AEEA-AEEA-γGlu-C20 diacid])ILPPTNVGSNT[Hyp]-NH2; disulfide 2-7 (inferred); N-terminus assumed), in data set [1], the EC50 was 0.033 nM. Also, in data set [2], the Dissolution property entry is on record as “Clear”, the Freeze storage property result is on record as “Clear” and the Freeze storage yield is on record as 98.68%.

For the molecule `CC[C@H](C)[C@H](NC(=O)[C@@H]1CCCN1C(=O)CNC(=O)[C@H](CC(C)C)NC(=O)[C@H](CCCCNC(=O)COCCOCCNC(=O)COCCOCCNC(=O)CC[C@H](NC(=O)CCCCCCCCCCCCCCCCCCC(=O)O)C(=O)O)NC(=O)[C@H](CC(N)=O)NC(=O)[C@H](CO)NC(=O)[C@H](CO)NC(=O)[C@H](Cc1c[nH]cn1)NC(=O)[C@H](CCCNC(=N)N)NC(=O)[C@H](CC(C)C)NC(=O)[C@H](Cc1ccccc1)NC(=O)[C@H](CCC(=O)O)NC(=O)[C@H](C)NC(=O)[C@H](CC(C)C)NC(=O)[C@H](CCCNC(=N)N)NC(=O)[C@H](CCC(N)=O)NC(=O)[C@@H](NC(=O)[C@H](C)NC(=O)[C@@H]1CSSC[C@H](NC(=O)[C@@H](N)CCCNC(=N)N)C(=O)N[C@@H](CC(N)=O)C(=O)N[C@@H]([C@@H](C)O)C(=O)N[C@@H](C)C(=O)N[C@@H]([C@@H](C)O)C(=O)N1)[C@@H](C)O)C(=O)N[C@@H](CC(C)C)C(=O)N1CCC[C@H]1C(=O)N1CCC[C@H]1C(=O)N[C@H](C(=O)N[C@@H](CC(N)=O)C(=O)N[C@H](C(=O)NCC(=O)N[C@@H](CO)C(=O)N[C@@H](CC(N)=O)C(=O)N[C@H](C(=O)N1CCC[C@H]1C(N)=O)[C@@H](C)O)C(C)C)[C@@H](C)O` [PD002] (H-RCNTATCATQRLAEFLRHSSNK([AEEA-AEEA-γGlu-C20 diacid])LGPILPPTNVGSNTP-NH2; disulfide 2-7 (inferred); N-terminus assumed), the EC50 in data set [1] was found to be 0.119 nM. In data set [2], the Dissolution property result is on record as “Clear” and the Freeze storage property entry is on record as “Clear”.
